Earlier results on one substance are cited in PMC8624105 (Viruses, 2021).

For this data set, the system named is NHERF1 PDZ domains. The settings on record: PDZ/PBM interaction.

Turning to “ACE2: glycosylated integral membrane protein of 805 residues”, the interaction result was “shown to interact with NHERF1 PDZ domains”.
